# Experimental data: EP0855387A1, “2-ACYLAMINOBENZAMIDE DERIVATIVES AND PREVENTIVE AND REMEDY FOR DISEASES CAUSED BY THE SUPERMULTIPLICATION OF VASCULAR INTIMAL CELLS” (KISSEI PHARMACEUTICAL CO., LTD., priority 1995, dated 1997)
# Like-named read-outs stand apart in the source and are kept apart here.
# Key:
# [1] = system: Spontaneous hypertensive rat-derived vascular smooth muscle cells (VSMCs) in thoracic aorta; experiment: Inhibition test on vascular smooth muscle cells proliferation (3H-thymidine incorporation); type: cell-based; conditions: Rattus norvegicus, VSMC
# Experimental: Thus, the compounds of the present invention have a very potent inhibitory effect on vascular smooth muscle cells proliferation.
# Spontaneous hypertensive rat-derived vascular smooth muscle cells (VSMCs) in thoracic aorta were isolated by explant technique. The VSMCs were placed into 96 wells at 5000 cells/well and incubated in DMEM containing 10 % fetal calf serum at 37 °C in 95 % air and 5 % carbon dioxide for 3 days. After the incubation, the medium was replaced with DMEM containing each compound and ^3H-thymidine, and then the VSMCs were incubated. 24 hours later, the incorporation of ^3H-thymidine into DNA was determined and the radioactivity was defined as proliferation inhibitory activity of VSMCs. The activity of each compound was shown as a concentration which reduced the radioactivity of non-treated group by 50 % (IC50).
# [2] = system: thrombosis-induced neointimal hyperplasia in mouse femoral artery; experiment: Inhibition test on neointimal hyperplasia (thrombosis-induced model); type: in vivo; conditions: oral, once a day for 3 weeks; dose reducing the neointimal area of the non-treated group by 50 %
# Experimental: The effect of compounds in vivo was evaluated by using a model of thrombosis-induced neointimal hyperplasia in mouse femoral artery. Each compound was suspended in 0.5 % carboxymethylcellulose sodium solution and administered orally to mice once a day for 3 weeks. After final administration, the femoral artery was fixed and removed. Cross sections of vessels were made consecutively and the neointimal area induced and formed by thrombosis was measured. Inhibitory activity on neointimal hyperplasia of each compound was shown as a dose which reduced the area of the non-treated group by 50 % (ID50).
# [3] = Acute toxicity test; type: in vivo; conditions: single oral administration, dose of 2000mg/kg; for death (dead mice): 2000 mg/kg
# Experimental: The compounds represented by the general formula (I) of the present invention have an LD50 value extremely preferable to that of Tranilast and therefore are very safer compounds.
# Male ICR nice were fasted for 4 hours. 2-(3,4-Dimethoxycinnamoylamino)benzamide was suspended in 0.5 % carboxymethylcellulose sodium and administered orally at doses of 300, 1000 and 2000mg/kg, respectively. Dead mice and abnormal behavior were not observed even in the group administered at a dose of 2000mg/kg.
# [4] = system: restenosis after PTCA surgery; conditions: patients after PTCA surgery; incidence without the drug about 30-40%; cited from earlier work
# [5] = 3H-thymidine incorporation into DNA, 24 hours incubation with compound, read-out: Concentration of 50% inhibitory activity (IC50)
Structure (SMILES),"IC50 [1, 5]",Dose of 50% inhibitory activity (ID50) [2],also measured
"COc1ccc(/C=C/C(=O)Nc2ccccc2C(N)=O)cc1OC [Compound 4, (E)-2-(3,4-Dimethoxycinnamoylamino)benzamide]",27 µM,1 mg/kg,"abnormal behavior ([3]; mice): not observed; death (dead mice) ([3]; listed as 2-(3,4-Dimethoxycinnamoylamino)benzamide): not observed; death (dead mice) ([3]; listed as 2-(3,4-dimethoxycinnamoylamino)benzamide): no death was observed"
"CCOc1ccc(/C=C/C(=O)Nc2ccccc2C(N)=O)cc1OC [Compound 17, (E)-2-(4-Ethoxy-3-methoxycinnamoylamino)benzamide]",5 µM,1 mg/kg,
"CCOc1ccc(/C=C/C(=O)Nc2cc(OC)c(OC)cc2C(N)=O)cc1OC [Compound 65, (E)-4,5-Dimethoxy-2-(4-ethoxy-3-methoxycinnamoylamino)benzamide]",12 µM,,
"COc1ccc(/C=C/C(=O)Nc2cc(OC)c(OC)cc2C(N)=O)cc1OC [Compound 66, (E)-4,5-Dimethoxy-2-(3,4-dimethoxycinnamoylamino)benzamide]",13 µM,,
"COc1ccc(NC(=O)/C=C/c2ccc(OC)c(OC)c2)c(C(N)=O)c1 [Compound 67, (E)-2-(3,4-Dimethoxycinnamoylamino)-5-methoxybenzamide]",57 µM,,
"COc1cc(/C=C/C(=O)Nc2ccccc2C(N)=O)cc(OC)c1O [Compound 69, (E)-2-(3,5-Dimethoxy-4-hydroxycinnamoylamino)benzamide]",55 µM,,
"COc1ccc(C=CC(=O)Nc2ccccc2C(=O)O)cc1OC [Tranilast, 2-(3,4-dimethoxycinnamoylamino)benzoic acid, reference compound]",,100 mg/kg,"IC50 ([1]; in vitro, read-out: concentration exhibiting a 50% inhibitory activity on vascular smooth muscle cells proliferation): 231 µM; restenosis observed when administering after PTCA surgery [4]: 10-15%"
